One experiment addresses T1, MAPKAPK5 (Homo sapiens, UniProt Q8IW41).
T1 construct: 1 mU MAPKAP-K5
T1 sequence (Q8IW41 1-473): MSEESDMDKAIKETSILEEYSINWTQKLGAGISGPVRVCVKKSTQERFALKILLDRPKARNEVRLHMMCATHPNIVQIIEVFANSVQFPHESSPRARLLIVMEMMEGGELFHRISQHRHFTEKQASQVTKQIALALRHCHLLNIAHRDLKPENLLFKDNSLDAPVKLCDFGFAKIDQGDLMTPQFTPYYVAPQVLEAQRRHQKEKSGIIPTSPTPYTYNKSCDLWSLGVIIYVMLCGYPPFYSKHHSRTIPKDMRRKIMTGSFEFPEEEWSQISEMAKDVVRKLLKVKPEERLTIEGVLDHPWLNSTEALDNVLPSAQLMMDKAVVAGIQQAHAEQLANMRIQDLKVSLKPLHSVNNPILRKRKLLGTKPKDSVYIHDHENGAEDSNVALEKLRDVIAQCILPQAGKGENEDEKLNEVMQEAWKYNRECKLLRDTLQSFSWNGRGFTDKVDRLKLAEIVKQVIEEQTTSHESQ
In words: MAPKAP-K5 assay (FlashPlate, 33P-ATP). Format: biochemical. The conditions noted are these: 0.6 μM ATP, 30 minutes at room temperature. The method, then: 3 μM MAPKAP-K5 peptide substrate

The next experiment has as its system MMP1 expression by SFs. In words: 'MMP assay': MMP1 expression by 'complex trigger' activated synovial fibroblasts (MMP1 ELISA). Format: cell-based, human. The conditions noted are these: Homo sapiens, Fibroblast, RASFs, 48 hrs. Here is the method: A 384-well format ELISA for measurement of MMP1 is developed. Various primary antibodies are tested, as well as various ELISA protocols. The following protocol is developed and validated to measure MMP1 levels in SF supernatant in 384 well plates: white Lumitrac 600 384 well plates (Greiner) are coated with 2 μg/mL anti-MMP1 antibody MAB1346 (Chemicon). The antibody is diluted in buffer 40 (1.21 g Tris base (Sigma), 0.58 g NaCl (Calbiochem) and 5 ml 10% NaN3 (Sigma) in 1 L milliQ water and adjusted to pH 8.5). After overnight incubation at 4° C., plates are washed with PBS (80 g NaCl, 2 g KCl (Sigma), 11.5 g Na2HPO4.7H2O and 2 g KH2PO4 in 10 L milliQ; pH 7.4) and blocked with 100 μL/well Casein buffer (2% Casein (VWR International) in PBS). Next day, casein buffer is removed from ELISA plates and replaced by 50 μL/well EC buffer (4 g casein, 2.13 g Na2HPO4 (Sigma), 2 g bovine albumin (Sigma), 0.69 g NaH2PO4.H2O (Sigma), 0.5 g CHAPS (Roche), 23.3 g NaCl, 4 mL 0.5 M EDTA pH 8 (Invitrogen), 5 mL 10% NaN3 in 1 L milliQ and adjusted to pH 7.0). 0.25 mM DTT (Sigma) is added to the thawed samples plates. After removal of the EC buffer, 20 μL of sample is transferred to the ELISA plates. After overnight incubation at 4° C. plates are washed twice with PBS and once with PBST (PBS with 0.05% Tween-20 (Sigma)) and incubated with 35 μL/well biotinylated anti-MMP1 antibody solution (R&D). This secondary antibody is diluted in buffer C (0.82 g NaH2PO4.H2O, 4.82 g Na2HPO4, 46.6 g NaCl, 20 g bovine albumin and 4 mL 0.5M EDTA pH 8 in 2 L milliQ and adjusted to pH 7.0) at a concentration of 5 μg/mL. After 2 h of incubation at RT, plates are washed as described above and incubated with 50 μL/well streptavidin-HRP conjugate (Biosource). Streptavidin-HRP conjugate is diluted in buffer C at a concentration of 0.25 μg/mL. After 45 min, plates are washed as described above and incubated for 5 min with 50 μL/well BM Chem ELISA Substrate (Roche). Readout is performed on the Luminoscan Ascent Luminometer (Labsystems) with an integration time of 200 msec or with an Envision reader (Perkin Elmer).
The increase of MMP1 expression by SFs upon treatment with cytokines relevant in the field of RA (TNF-α, IL1β and OSM) or a combination thereof is shown in FIG. 2 as white bars. For this experiment, SFs are seeded in 96 well plates, 3,000 cells/well. 24 h later, the medium is changed to M199 medium supplemented with 1% FBS. One day after the medium change, cytokines or combinations thereof are added to the cultures, each cytokine being added to a final concentration of 25 ng/mL. 72 h after cytokine addition, the supernatant is collected and processed in the MMP1 ELISA as described in the protocol given above. In parallel with this experiment, SFs are triggered, using the same protocol, with the supernatant of THP1 cells (2-fold diluted in M199+1% FBS) treated with the same cytokines or combinations of cytokines for 48 h in M199 medium+1% FBS. The induction of the MMP1 expression by SFs triggered with the supernatants of TNF-α-treated THP1 cells is stronger (>4.5 fold induction) as compared to the SFs triggered with recombinant TNF-α alone (3-fold induction) and almost equals the 5-fold induction obtained by a mixture of 3 purified cytokines (TNF-α, IL1βb, OSM). […] As the role of TNF-α in the RA pathogenesis is validated (TNF-α-blockers such as Infliximab and Etanercept show some efficacy in the treatment of RA patients) and the THP-1 cells are representative for monocytes/macrophages present in the joint of RA patients, the TNF-α-based trigger mixture prepared by contacting THP-1 cells with TNF-α will contain factors present in the joints of RA patients and subsequently is relevant to RA. This TNF-α-based complex trigger, further referred to as the ‘complex trigger’, will further be used as basis for the ‘MMP assay’.
Dexamethasone is shown to dose-dependently reduce amounts of MMP1 produced by complex trigger activated SFs. […]
(In general: In an ELISA, binding on a coated surface is turned into a signal by an enzyme label.)

The term IC50 denotes the concentration that inhibits the measured activity by half. A low value points to higher potency. The term EC50 denotes the concentration giving half of the maximal effect. At MAPKAPK5, `O=C(O)c1ccc(Nc2ncc(-c3cn[nH]c3)n3ccnc23)cc1` [Compound 23] showed an IC50 greater than 1 µM. The EC50 in the experiment on MMP1 expression by SFs is greater than 1 µM.

On to `N#Cc1ccc(Nc2ncc(-c3cn[nH]c3)n3ccnc23)cc1Cl` [Compound 34], for which the IC50 at MAPKAPK5 was greater than 1 µM. Moreover, the EC50 in the experiment with MMP1 expression by SFs was in the range of 0.501 to 1 µM.

Consider `Cc1cc(-c2cnc(Nc3ccc(N4CCOCC4)cc3)c3nccn23)ccc1C(N)=O` [Compound 185], for which the IC50 on MAPKAPK5 is greater than 1 µM. The EC50 in the experiment on MMP1 expression by SFs lay in the range of 0.501 to 1 µM.

For the molecule `O=C(O)c1ccc(-c2cnc(Nc3ccc(N4CCOCC4)cc3)c3nccn23)cc1F` [Compound 39], the IC50 against MAPKAPK5 is greater than 1 µM. In the experiment with MMP1 expression by SFs, the EC50 is greater than 1 µM.

The molecule `O=C(O)c1ccc(-c2cnc(Nc3ccc(C(=O)NCc4cccnc4)cc3)c3nccn23)cc1` [Compound 44] showed an IC50 at MAPKAPK5 greater than 1 µM. The EC50 in the experiment on MMP1 expression by SFs was greater than 1 µM.

In the case of `CCN(CC)CCNC(=O)c1ccc(Nc2ncc(-c3cc[nH]c(=O)c3)n3ccnc23)cc1` [Compound 99], the IC50 against MAPKAPK5 is 0.101 to 0.5 µM. Besides, the EC50 in the experiment with MMP1 expression by SFs was greater than 1 µM.

Molecule `CN1CCN(c2ccc(Nc3ncc(-c4cncc(C(N)=O)c4)n4ccnc34)cc2)CC1` [Compound 121, 5-{8-[4-(4-Methyl-piperazin-1-yl)-phenylamino]-imidazo[1,2-a]pyrazin-5-yl}-nicotinamide] yielded an IC50 at MAPKAPK5 greater than 1 µM. In addition, the EC50 with MMP1 expression by SFs was greater than 1 µM.

`CN1CCN(c2ccc(Nc3ncc(-c4ccc(C(N)=O)c(N(C)C)c4)n4ccnc34)cc2)CC1` [Compound 126, 2-Dimethylamino-4-{8-[4-(4-methyl-piperazin-1-yl)-phenylamino]-imidazo[1,2-a]pyrazin-5-yl}-benzamide] registered an IC50 against MAPKAPK5 greater than 1 µM. Further, the EC50 in the experiment on MMP1 expression by SFs was greater than 1 µM.

`CS(=O)(=O)c1ccc(Nc2ncc(-c3ccc(C(N)=O)cc3)n3ccnc23)cc1` [Compound 97, 4-[8-(4-Methanesulfonyl-phenylamino)-imidazo[1,2-a]pyrazin-5-yl]-benzamide] had an IC50 against MAPKAPK5 greater than 1 µM. Besides, the EC50 in the experiment with MMP1 expression by SFs is greater than 1 µM.

On MAPKAPK5, `NC(=O)c1ccc(-c2cnc(Nc3ccc(OCc4cccnc4)cc3)c3nccn23)cc1F` [Compound 147] had an IC50 greater than 1 µM. The EC50 with MMP1 expression by SFs was in the range of 0.101 to 0.5 µM.

The molecule `CCN(CC)CCNC(=O)c1ccc(Nc2ncc(-c3ccc(O)c(OC)c3)n3ccnc23)cc1` [Compound 65] came in with an IC50 against MAPKAPK5 greater than 1 µM. In addition, the EC50 in the experiment with MMP1 expression by SFs is greater than 1 µM.

For `CCN(CC)CCNC(=O)c1ccc(Nc2ncc(-c3ccoc3)n3ccnc23)cc1` [Compound 74], the IC50 against MAPKAPK5 is greater than 1 µM. Also, in the experiment with MMP1 expression by SFs, the EC50 was greater than 1 µM.

Regarding `CC(C)N1CCN(c2ncc(Nc3ncc(-c4ccc5c(c4)CNC5=O)n4ccnc34)cn2)CC1` [Compound 219], the IC50 against MAPKAPK5 was 0.101 to 0.5 µM. In addition, in the experiment with MMP1 expression by SFs, the concentration for a half-maximal effect (EC50) is 0.501 to 1 µM.

In turn, `CCc1cnc2c(Nc3ccc(N4CCOCC4)cc3)ncc(-c3cc[nH]c(=O)c3)n12` [Compound 180] came in with an IC50 against MAPKAPK5 greater than 1 µM.

`COc1cc(Nc2ncc(-c3cn[nH]c3)n3ccnc23)ccc1C(=O)NCc1ccc(C)nc1` [Compound 184, 2-Methoxy-N-(6-methylpyridin-3-ylmethyl)-4-[5-(1H-pyrazol-4-yl)imidazo[1,2-a]pyrazin-8-ylamino]benzamide]: in the experiment on MMP1 expression by SFs, the EC50 was 0.101 to 0.5 µM.

Regarding `CCc1cnc2c(Nc3ccc(N4CCOCC4)cc3)ncc(-c3cn[nH]c3)n12` [Compound 189, [3-Ethyl-5-(1H-pyrazol-4-yl)imidazo[1,2-a]pyrazin-8-yl]-(4-morpholin-4-yl-phenyl)amine], in the experiment with MMP1 expression by SFs, the EC50 lay within 0.501 to 1 µM.

Take `c1cn2c(-c3cn[nH]c3)cnc(NCc3ccc(N4CCOCC4)cc3)c2n1` [Compound 8]: the IC50 on MAPKAPK5 was greater than 1 µM.

Turning to `CCN(CCO)c1ccc(Nc2ncc(-c3ccc(O)cc3C)n3ccnc23)cc1` [Compound 3], at MAPKAPK5, the IC50 is greater than 1 µM.

Turning to `CN1CCN(c2ccc(Nc3ncc(-c4ccc(C(N)=O)cc4)n4ccnc34)cc2)CC1` [Compound 26], the IC50 on MAPKAPK5 fell in the range of 0.501 to 1 µM.

For the molecule `O=C1NCc2cc(-c3cnc(Nc4cncnc4)c4nccn34)ccc21` [Compound 230], at MAPKAPK5, the IC50 was 0.101 to 0.5 µM.

At MAPKAPK5, `CC(C)N1CCN(c2ccc(Nc3ncc(-c4cc5c(s4)C(=O)NC5)n4ccnc34)cc2)CC1` [Compound 228] registered an IC50 of 0.101 to 0.5 µM.

These data come from patent publication US8178530B2, “Imidazolopyrazine compounds useful for the treatment of degenerative and inflammatory diseases” (Janssen Pharmaceutica NV, priority 2006, dated 2012).
